{"source": "paper PMC7206119", "about": "“RIP1 inhibition blocks inflammatory diseases but not tumor growth or metastases” (Cell Death and Differentiation, 2019)", "assay_in_all_cases": "biochemical", "parameters_in_all_cases": "DiscoverX kinase panel, active-site competition binding (KINOMEscan type), percent of control at one concentration", "details_in_all_cases": "competition binding, percent of control", "key": {"[1]": {"target": "CAMK2A (Homo sapiens, UniProt Q9UQM7)"}, "[2]": {"target": "T1, YSK4 (Homo sapiens, UniProt Q56UN5)", "T1 construct": "gene MAP3K19"}, "[3]": {"target": "LATS2 (Homo sapiens, UniProt Q9NRM7)"}, "[4]": {"target": "NEK7 (Homo sapiens, UniProt Q8TDX7)", "sequence (Q8TDX7 whole entry)": "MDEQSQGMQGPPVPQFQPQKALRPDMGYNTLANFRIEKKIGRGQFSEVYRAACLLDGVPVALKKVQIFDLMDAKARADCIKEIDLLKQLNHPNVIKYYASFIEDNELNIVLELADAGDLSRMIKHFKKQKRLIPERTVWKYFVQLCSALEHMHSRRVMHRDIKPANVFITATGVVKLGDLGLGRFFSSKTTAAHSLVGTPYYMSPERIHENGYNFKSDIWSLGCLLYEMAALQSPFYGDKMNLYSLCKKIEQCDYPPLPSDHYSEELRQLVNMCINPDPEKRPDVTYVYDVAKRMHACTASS"}, "[5]": {"target": "T2, YES (Homo sapiens, UniProt P07947)", "T2 construct": "gene YES1"}, "[6]": {"target": "EGFR(G719C) (Homo sapiens, UniProt P00533, G719C)"}, "[7]": {"target": "CLK3 (Homo sapiens, UniProt P49761)", "sequence (P49761 whole entry)": "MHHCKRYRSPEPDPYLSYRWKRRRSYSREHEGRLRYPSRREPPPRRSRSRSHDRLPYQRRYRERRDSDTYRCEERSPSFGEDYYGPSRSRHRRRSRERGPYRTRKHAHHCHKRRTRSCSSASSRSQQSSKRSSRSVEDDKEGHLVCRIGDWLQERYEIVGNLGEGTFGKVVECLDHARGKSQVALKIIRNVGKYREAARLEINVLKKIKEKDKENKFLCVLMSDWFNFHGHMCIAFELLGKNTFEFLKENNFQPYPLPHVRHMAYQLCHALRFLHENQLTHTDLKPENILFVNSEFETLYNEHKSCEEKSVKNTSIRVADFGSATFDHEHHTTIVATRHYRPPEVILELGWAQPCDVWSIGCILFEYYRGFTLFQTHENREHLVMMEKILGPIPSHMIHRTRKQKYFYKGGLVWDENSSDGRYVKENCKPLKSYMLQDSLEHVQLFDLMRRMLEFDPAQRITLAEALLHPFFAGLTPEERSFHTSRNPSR"}, "[8]": {"target": "PIK3CA(I800L) (Homo sapiens, UniProt P42336, I800L)"}, "[9]": {"target": "T3, YANK2 (Homo sapiens, UniProt Q9NY57)", "T3 construct": "gene STK32B"}, "[10]": {"target": "T4, ASK1 (Homo sapiens, UniProt Q99683)", "T4 construct": "gene MAP3K5"}, "[11]": {"target": "T5, MKK7 (Homo sapiens, UniProt O14733)", "T5 construct": "gene MAP2K7"}, "[12]": {"target": "CHEK2 (Homo sapiens, UniProt O96017)", "sequence (O96017 whole entry)": "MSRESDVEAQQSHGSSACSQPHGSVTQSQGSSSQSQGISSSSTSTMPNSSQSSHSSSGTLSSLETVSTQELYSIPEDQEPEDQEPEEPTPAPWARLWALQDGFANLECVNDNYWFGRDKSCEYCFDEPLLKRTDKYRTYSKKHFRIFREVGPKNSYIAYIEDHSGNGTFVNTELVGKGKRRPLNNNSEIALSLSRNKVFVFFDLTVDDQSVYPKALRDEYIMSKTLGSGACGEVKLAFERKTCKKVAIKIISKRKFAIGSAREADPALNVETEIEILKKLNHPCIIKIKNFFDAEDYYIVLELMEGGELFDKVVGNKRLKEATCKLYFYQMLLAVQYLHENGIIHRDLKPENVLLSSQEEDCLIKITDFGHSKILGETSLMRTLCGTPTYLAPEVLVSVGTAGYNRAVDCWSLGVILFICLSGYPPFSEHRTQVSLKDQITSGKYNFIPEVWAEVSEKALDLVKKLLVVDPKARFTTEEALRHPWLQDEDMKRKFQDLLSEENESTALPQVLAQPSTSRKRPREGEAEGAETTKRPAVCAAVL"}, "[13]": {"target": "T6, NDR2 (Homo sapiens, UniProt Q9Y2H1)", "T6 construct": "gene STK38L"}, "[14]": {"target": "CLK4 (Homo sapiens, UniProt Q9HAZ1)"}, "[15]": {"target": "FES (Homo sapiens, UniProt P07332)", "sequence (P07332 whole entry)": "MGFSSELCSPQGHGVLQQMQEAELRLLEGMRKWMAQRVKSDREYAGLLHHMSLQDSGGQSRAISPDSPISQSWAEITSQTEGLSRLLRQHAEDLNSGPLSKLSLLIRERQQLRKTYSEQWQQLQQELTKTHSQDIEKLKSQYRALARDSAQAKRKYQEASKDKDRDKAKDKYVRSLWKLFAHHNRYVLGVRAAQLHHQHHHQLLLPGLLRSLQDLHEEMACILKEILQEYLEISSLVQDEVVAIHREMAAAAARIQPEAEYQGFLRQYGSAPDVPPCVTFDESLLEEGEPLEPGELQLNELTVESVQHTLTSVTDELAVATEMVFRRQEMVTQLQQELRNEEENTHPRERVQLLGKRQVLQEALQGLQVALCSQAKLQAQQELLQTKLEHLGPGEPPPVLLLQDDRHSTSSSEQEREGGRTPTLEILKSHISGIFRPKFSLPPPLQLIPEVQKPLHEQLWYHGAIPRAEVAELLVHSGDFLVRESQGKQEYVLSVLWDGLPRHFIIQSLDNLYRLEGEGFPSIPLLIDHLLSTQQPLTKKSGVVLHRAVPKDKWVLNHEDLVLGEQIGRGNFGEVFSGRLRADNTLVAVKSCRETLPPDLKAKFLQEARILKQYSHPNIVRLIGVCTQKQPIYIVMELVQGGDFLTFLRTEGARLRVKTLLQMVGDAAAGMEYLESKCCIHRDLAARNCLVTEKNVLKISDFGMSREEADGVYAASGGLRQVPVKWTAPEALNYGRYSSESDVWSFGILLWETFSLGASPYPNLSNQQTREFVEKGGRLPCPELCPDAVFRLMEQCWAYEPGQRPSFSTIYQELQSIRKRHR"}, "[16]": {"target": "TGFBR2 (Homo sapiens, UniProt P37173)", "sequence (P37173 whole entry)": "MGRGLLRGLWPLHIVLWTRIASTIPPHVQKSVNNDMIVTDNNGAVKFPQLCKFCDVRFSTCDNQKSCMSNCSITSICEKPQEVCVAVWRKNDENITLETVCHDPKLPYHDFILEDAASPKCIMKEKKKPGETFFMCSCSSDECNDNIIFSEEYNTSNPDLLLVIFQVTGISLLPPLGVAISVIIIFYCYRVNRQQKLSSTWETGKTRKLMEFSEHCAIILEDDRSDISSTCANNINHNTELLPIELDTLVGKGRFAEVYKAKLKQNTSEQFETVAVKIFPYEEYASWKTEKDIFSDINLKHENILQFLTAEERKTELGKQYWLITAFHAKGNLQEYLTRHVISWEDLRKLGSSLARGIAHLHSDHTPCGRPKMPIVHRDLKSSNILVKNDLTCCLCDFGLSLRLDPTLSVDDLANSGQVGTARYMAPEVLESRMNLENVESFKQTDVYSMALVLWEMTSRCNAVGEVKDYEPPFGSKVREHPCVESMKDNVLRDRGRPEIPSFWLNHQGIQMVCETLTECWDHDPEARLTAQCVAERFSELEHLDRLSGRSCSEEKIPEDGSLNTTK"}, "[17]": {"target": "HIPK2 (Homo sapiens, UniProt Q9H2X6)", "sequence (Q9H2X6 whole entry)": "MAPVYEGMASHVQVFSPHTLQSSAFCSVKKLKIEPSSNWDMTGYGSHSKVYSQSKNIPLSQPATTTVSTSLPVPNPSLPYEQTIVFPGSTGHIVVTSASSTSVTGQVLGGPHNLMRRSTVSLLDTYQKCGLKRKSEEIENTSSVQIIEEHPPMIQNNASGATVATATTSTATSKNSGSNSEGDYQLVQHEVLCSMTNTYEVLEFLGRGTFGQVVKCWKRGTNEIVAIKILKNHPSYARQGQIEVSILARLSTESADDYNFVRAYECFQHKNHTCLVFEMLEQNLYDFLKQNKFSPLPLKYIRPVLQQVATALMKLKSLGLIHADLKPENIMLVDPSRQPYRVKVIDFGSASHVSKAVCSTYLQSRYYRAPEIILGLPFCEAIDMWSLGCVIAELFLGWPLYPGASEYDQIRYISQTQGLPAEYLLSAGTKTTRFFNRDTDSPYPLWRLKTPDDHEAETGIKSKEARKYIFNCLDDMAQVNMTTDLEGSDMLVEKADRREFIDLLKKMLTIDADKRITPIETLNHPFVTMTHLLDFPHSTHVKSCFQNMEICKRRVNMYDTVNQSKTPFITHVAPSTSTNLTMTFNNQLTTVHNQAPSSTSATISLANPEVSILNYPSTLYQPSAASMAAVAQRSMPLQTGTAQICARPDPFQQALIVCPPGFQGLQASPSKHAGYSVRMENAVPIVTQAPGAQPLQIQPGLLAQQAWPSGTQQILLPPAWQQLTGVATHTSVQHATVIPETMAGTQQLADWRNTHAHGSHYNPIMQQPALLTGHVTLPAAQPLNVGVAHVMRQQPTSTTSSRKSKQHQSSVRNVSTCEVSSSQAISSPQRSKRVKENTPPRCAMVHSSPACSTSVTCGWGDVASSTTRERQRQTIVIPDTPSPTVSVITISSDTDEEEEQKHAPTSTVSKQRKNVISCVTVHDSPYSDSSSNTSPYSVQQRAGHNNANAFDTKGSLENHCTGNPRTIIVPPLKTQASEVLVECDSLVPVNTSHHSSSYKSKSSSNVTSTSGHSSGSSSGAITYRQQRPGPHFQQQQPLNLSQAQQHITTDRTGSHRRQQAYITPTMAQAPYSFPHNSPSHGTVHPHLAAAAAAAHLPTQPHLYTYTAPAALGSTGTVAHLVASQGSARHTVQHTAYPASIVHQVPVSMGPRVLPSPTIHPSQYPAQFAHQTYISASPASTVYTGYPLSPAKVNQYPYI"}, "[18]": {"target": "PAK2 (Homo sapiens, UniProt Q13177)", "sequence (Q13177 whole entry)": "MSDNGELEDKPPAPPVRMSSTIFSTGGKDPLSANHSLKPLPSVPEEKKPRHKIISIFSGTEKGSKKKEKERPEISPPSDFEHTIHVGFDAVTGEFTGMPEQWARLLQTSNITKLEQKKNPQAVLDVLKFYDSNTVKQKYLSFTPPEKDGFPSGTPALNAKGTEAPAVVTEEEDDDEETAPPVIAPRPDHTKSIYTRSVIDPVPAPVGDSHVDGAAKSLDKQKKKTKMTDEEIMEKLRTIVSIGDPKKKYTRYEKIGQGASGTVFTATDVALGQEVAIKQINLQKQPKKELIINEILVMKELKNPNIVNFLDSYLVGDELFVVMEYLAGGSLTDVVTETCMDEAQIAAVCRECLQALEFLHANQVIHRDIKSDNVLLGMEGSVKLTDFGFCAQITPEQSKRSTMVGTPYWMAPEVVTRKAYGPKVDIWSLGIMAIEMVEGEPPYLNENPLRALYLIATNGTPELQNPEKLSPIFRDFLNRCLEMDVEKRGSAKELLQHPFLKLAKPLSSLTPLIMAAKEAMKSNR"}, "[19]": {"target": "KIT-autoinhibited (Homo sapiens, UniProt P10721)"}, "[20]": {"target": "T7, ABL1(T315I)-phosphorylated (Homo sapiens, UniProt P00519, T315I)", "T7 construct": "phosphorylated"}, "[21]": {"target": "CAMK1D (Homo sapiens, UniProt Q8IU85)", "sequence (Q8IU85 whole entry)": "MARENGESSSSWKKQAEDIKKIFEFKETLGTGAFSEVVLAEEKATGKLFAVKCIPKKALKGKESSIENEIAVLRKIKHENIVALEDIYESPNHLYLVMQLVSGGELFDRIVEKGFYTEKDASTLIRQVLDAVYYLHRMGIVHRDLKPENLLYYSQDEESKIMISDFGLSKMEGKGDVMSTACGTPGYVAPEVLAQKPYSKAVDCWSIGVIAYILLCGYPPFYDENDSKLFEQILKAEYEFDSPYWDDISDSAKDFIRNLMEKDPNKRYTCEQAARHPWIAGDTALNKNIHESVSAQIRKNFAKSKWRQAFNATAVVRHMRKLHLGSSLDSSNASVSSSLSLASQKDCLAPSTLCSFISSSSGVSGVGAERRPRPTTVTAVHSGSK"}}}
{"smiles": "COc1cc2c(cn1)N(C)C(=O)[C@@H](NC(=O)c1nc3n(n1)[C@H](c1ccccc1)CC3)CC2", "note": "[GNE684, (S)-N-((S)-7-methoxy-1-methyl-2-oxo-2,3,4,5-tetrahydro-1H-pyrido[3,4-b]azepin-3-yl)-5-phenyl-6,7-dihydro-5H-pyrrolo[1,2-b][1,2,4]triazole-2-carboxamide]", "values": [{"measurement": "remaining binding at 10 µM", "setting": "[1]", "value": 69, "unit": "%"}, {"measurement": "remaining binding at 10 µM", "setting": "[2]", "value": 92, "unit": "%"}, {"measurement": "remaining binding at 10 µM", "setting": "[3]", "value": 84, "unit": "%"}, {"measurement": "remaining binding at 10 µM", "setting": "[4]", "value": 97, "unit": "%"}, {"measurement": "remaining binding at 10 µM", "setting": "[5]", "value": 95, "unit": "%"}, {"measurement": "remaining binding at 10 µM", "setting": "[6]", "value": 87, "unit": "%"}, {"measurement": "remaining binding at 10 µM", "setting": "[7]", "value": 97, "unit": "%"}, {"measurement": "remaining binding at 10 µM", "setting": "[8]", "value": 96, "unit": "%"}, {"measurement": "remaining binding at 10 µM", "setting": "[9]", "value": 84, "unit": "%"}, {"measurement": "remaining binding at 10 µM", "setting": "[10]", "value": 97, "unit": "%"}, {"measurement": "remaining binding at 10 µM", "setting": "[11]", "value": 98, "unit": "%"}, {"measurement": "remaining binding at 10 µM", "setting": "[12]", "value": 100, "unit": "%"}, {"measurement": "remaining binding at 10 µM", "setting": "[13]", "value": 100, "unit": "%"}, {"measurement": "remaining binding at 10 µM", "setting": "[14]", "value": 95, "unit": "%"}, {"measurement": "remaining binding at 10 µM", "setting": "[15]", "value": 100, "unit": "%"}, {"measurement": "remaining binding at 10 µM", "setting": "[16]", "value": 94, "unit": "%"}, {"measurement": "remaining binding at 10 µM", "setting": "[17]", "value": 82, "unit": "%"}, {"measurement": "remaining binding at 10 µM", "setting": "[18]", "value": 100, "unit": "%"}, {"measurement": "remaining binding at 10 µM", "setting": "[19]", "value": 93, "unit": "%"}, {"measurement": "remaining binding at 10 µM", "setting": "[20]", "value": 81, "unit": "%"}, {"measurement": "remaining binding at 10 µM", "setting": "[21]", "value": 98, "unit": "%"}]}
